Type in all cases: cell-based
Details in all cases: Cavia porcellus, guinea pig PRP

Experiment [1] has as its system ADP-Induced Platelet Aggregation. As to the kind of experiment: Platelet aggregation inhibitory activity: ADP-induced platelet aggregation in platelet rich plasma. How it is done: (§1) A blood of a guinea pig was sampled by using a 1/10 volume of a 3.8% sodium citrate as a platelet aggregation inhibitor, and a platelet rich plasma (PRP) was separated by centrifuging the blood sample at 1100 rpm for 10 min. After fractionating the PRP in the upper layer, the lower layer was centrifuged at 3000 rpm for 10 min to fractionate the platelet poor plasma (PPP). To 100 μL of PRP, a 1 μL solution of each compound was added, and after still standing at 37° C. for 1 min, the mixture was stirred at 37° C. for 1 min by a stirrer. Then, 11 μL of collagen, ristocetin, or ADP was added thereto to induce the platelet aggregation. The platelet aggregation ability was measured by using the mCM hematolaser 313M (L-M-S Inc.). Based on the assumption that a light transmittance of PPP corresponds to a 100% coagulation value, an aggregation rate at each concentration of the compound was determined, then, an IC50 value was calculated therefrom.
[Platelet Aggregation Inhibitory Activities: ADP-Induced Platelet Aggregation]

Experiment [2] concerns Ristocetin-Induced Platelet Aggregation. As to the kind of experiment: Platelet aggregation inhibitory activity: ristocetin-induced platelet aggregation in platelet rich plasma. The protocol:
as §1
[Platelet Aggregation Inhibitory Activities: Ristocetin-Induced Platelet Aggregation]

For experiment [3], the system named is Collagen-Induced Platelet Aggregation. Description: Platelet aggregation inhibitory activity: collagen-induced platelet aggregation in platelet rich plasma. The protocol: as §1
[Platelet Aggregation Inhibitory Activities: Collagen-Induced Platelet Aggregation]

In general, IC50 refers to the concentration that gives 50% inhibition. With `COc1ccc(-c2c3ncc(C(F)(F)F)cc3nn2-c2ccccn2)cn1` [Example 186, 3-(6-methoxypyridin-3-yl)-2-pyridin-2-yl-6-(trifluoromethyl)-2H-pyrazolo[4,3-b]pyridine], the IC50 in experiment [1] was above 10 µM; in experiment [2], 9 nM; in experiment [3], 16 nM.

In the case of `COc1ccc(-n2c(-c3ccn(C)n3)nc3cc(C(F)(F)F)ccc32)nn1` [Example 52, 1-(6-methoxypyridazin-3-yl)-2-(1-methyl-1H-pyrazol-3-yl)-5-(trifluoromethyl)-1H-benzimidazole], the IC50 was above 10 µM in experiment [1], 41 nM in experiment [2] and 54 nM in experiment [3].

For the compound `COc1ccc(-c2c3ccc(C(F)(F)F)cc3nn2-c2ccc(F)cn2)cn1` [Example 185, 2-(5-fluoropyridin-2-yl)-3-(6-methoxypyridin-3-yl)-6-(trifluoromethyl)-2H-indazole], the IC50 in experiment [1] is above 10 µM; in experiment [3], 70 nM.

As for `COc1ccc(-n2c(-c3ccc(C#N)cn3)nc3cc(C(F)(F)F)ccc32)nn1` [Example 7, 6-[1-(6-methoxypyridazin-3-yl)-5-(trifluoromethyl)-1H-benzimidazole-2-yl]nicotinonitrile], the IC50 in experiment [1] was above 10 µM; in experiment [2], 60 nM; in experiment [3], 25 nM.

On to `COc1ccc(-n2c(-c3ccccn3)nc3cc(C(F)(F)F)cnc32)cn1` [Example 13, 3-(6-methoxypyridin-3-yl)-2-pyridin-2-yl-6-(trifluoromethyl)-3H-imidazo[4,5-b]pyridine], for which the results for the IC50 in experiment [1], in experiment [2] and in experiment [3] were above 10 µM, 41 nM and 42 nM, respectively.

As to `COc1ccc(-n2c(-c3ccc(F)cn3)nc3cc(OC(F)F)cnc32)cn1` [Example 178], the IC50 in experiment [1] was above 10 µM; in experiment [2] it was 47 nM; in experiment [3] it was 94 nM.

For the compound `COc1ccc(-n2c(-c3ccccn3)nc3cc(OC(F)(F)F)ccc32)cn1` [Example 40, 1-(6-methoxypyridin-3-yl)-2-pyridin-2-yl-5-(trifluoromethoxy)-1H-benzimidazole], the IC50 is above 10 µM in experiment [1], 170 nM in experiment [2] and 330 nM in experiment [3].

As to `COc1ccc(-n2c(-c3cn(C)nn3)nc3cc(C(F)(F)F)cnc32)cn1` [Example 160, 3-(6-methoxypyridin-3-yl)-2-(1-methyl-1H-1,2,3-triazol-4-yl)-6-(trifluoromethyl)-3H-imidazo[4,5-b]pyridine], the IC50 was above 10 µM in experiment [1], 163 nM in experiment [2] and 163 nM in experiment [3].

Turning to `COc1ccc(-n2c(-c3ccc(F)cn3)nc3cc(C(F)(F)F)ccc32)nn1` [Example 62, 2-(5-fluoropyridin-2-yl)-1-(6-methoxypyridazin-3-yl)-5-(trifluoromethyl)-1H-benzimidazole], the IC50 in experiment [1] is above 10 µM; in experiment [2], 27 nM; in experiment [3], 17 nM.

As for `COc1ccc(-n2c(-c3cocn3)nc3cc(C(F)(F)F)ccc32)nn1` [Example 88, 1-(6-methoxypyridazin-3-yl)-2-(1,3-oxazol-4-yl)-5-(trifluoromethyl)-1H-benzimidazole], the figures for the IC50 in experiment [1], in experiment [2] and in experiment [3] were above 10 µM, 80 nM and 120 nM, respectively.

As to `COc1ccc(-c2c(-c3ccc(F)cn3)nc3cc(C(F)(F)F)cnn23)cn1` [Example 181, 2-(5-fluoropyridin-2-yl)-3-(6-methoxypyridin-3-yl)-7-(trifluoromethyl)imidazo[1,2-b]pyridazine], the values for the IC50 in experiment [1], in experiment [2] and in experiment [3] were above 10 µM, 27 nM and 33 nM, respectively.

Take `COc1ccc(-n2c(-c3ccc(F)cn3)nc3cc(OC(F)(F)F)cnc32)cn1` [Example 177, 2-(5-fluoropyridin-2-yl)-3-(6-methoxypyridin-3-yl)-6-(trifluoromethoxy)-3H-imidazo[4,5-b]pyridine]: the IC50 in experiment [1] is above 10 µM; in experiment [2], 11 nM; in experiment [3] it was 21 nM.

As to `COc1ccc(-n2c(-c3ccc(F)cn3)nc3cc(OC(F)(F)F)ccc32)nn1` [Example 71, 2-(5-fluoropyridin-2-yl)-1-(6-methoxypyridazin-3-yl)-5-(trifluoromethoxy)-1H-benzimidazole], the IC50 in experiment [1] was above 10 µM; in experiment [2], 43 nM; in experiment [3], 78 nM.

Take `COc1ccc(-c2c(-c3ccccn3)nc3cc(C(F)(F)F)cnn23)cn1` [Example 179, 3-(6-methoxypyridin-3-yl)-2-pyridin-2-yl-7-(trifluoromethyl)imidazo[1,2-b]pyridazine]: the IC50 in experiment [1] is above 10 µM; in experiment [2], 34 nM; in experiment [3] it was 75 nM.

`COc1ccc(-n2c(-c3ccc(Cl)cn3)nc3cc(C(F)(F)F)ccc32)cn1` [Example 36, 2-(5-chloropyridin-2-yl)-1-(6-methoxypyridin-3-yl)-5-(trifluoromethyl)-1H-benzimidazole]: the IC50 in experiment [1] is above 10 µM; in experiment [2], 180 nM; in experiment [3], 49 nM.

For the compound `COc1ccc(-n2c(-c3ccccn3)nc3cc(C(F)(F)F)ccc32)nn1` [Example 1, 1-(6-methoxypyridazin-3-yl)-2-pyridin-2-yl-5-(trifluoromethyl)-1H-benzimidazole], the results for the IC50 in experiment [1], in experiment [2] and in experiment [3] were above 10 µM, 100 nM and 33 nM, respectively.

For the compound `COc1ccc(-n2c(-c3ccc(F)cn3)nc3cc(C(F)(F)F)cnc32)cn1` [Example 4, 2-(5-fluoropyridin-2-yl)-3-(6-methoxypyridin-3-yl)-6-(trifluoromethyl)-3H-imidazo[4,5-b]pyridine], the IC50 in experiment [1] is above 10 µM; in experiment [2] it was 24 nM; in experiment [3], 21 nM.

`COc1ccc(-n2c(-c3ccccn3)nc3cc(C(F)(F)F)ccc32)cn1` [Example 14, 1-(6-methoxypyridin-3-yl)-2-pyridin-2-yl-5-(trifluoromethyl)-1H-benzimidazole]: the IC50 in experiment [1] is above 10 µM; in experiment [3], 200 nM.

As to `COc1ccc(-n2c(-c3cccc(F)n3)nc3cc(C(F)(F)F)ccc32)nn1` [Example 2, 2-(6-fluoropyridin-2-yl)-1-(6-methoxypyridazin-3-yl)-5-(trifluoromethyl)-1H-benzimidazole], the IC50 in experiment [2] stood at 92 nM; in experiment [3] it was 180 nM.

For the compound `COc1cnc(-n2c(-c3cn(C)cn3)nc3cc(C(F)(F)F)cnc32)cn1` [Example 169, 3-(5-methoxypyrazine-2-yl)-2-(1-methyl-1H-imidazol-4-yl)-6-(trifluoromethyl)-3H-imidazo[4,5-b]pyridine], the IC50 was above 10 µM in experiment [1], 148 nM in experiment [2] and 123 nM in experiment [3].

Turning to `COc1ccc(-n2c(-c3ccccn3)cc3cc(C(F)(F)F)ccc32)cn1` [Example 182, 1-(6-methoxypyridin-3-yl)-2-pyridin-2-yl-5-(trifluoromethyl)-1H-indole], the IC50 in experiment [1] was above 10 µM; in experiment [3], 116 nM.

On to `COc1ccc(-n2c(-c3ccc[nH]3)nc3cc(C(F)(F)F)cnc32)cn1` [Example 10, 3-(6-methoxypyridin-3-yl)-2-(1H-pyrrol-2-yl)-6-(trifluoromethyl)-3H-imidazo[4,5-b]pyridine], for which the IC50 in experiment [2] was 15 nM; in experiment [3], 18 nM.

Regarding `COc1ccc(-n2c(-c3ccccn3)nc3cc(C(F)(F)F)c(Cl)cc32)cn1` [Example 55, 6-chloro-1-(6-methoxypyridin-3-yl)-2-pyridin-2-yl-5-(trifluoromethyl)-1H-benzimidazole], the values for the IC50 in experiment [2] and in experiment [3] were 60 nM and 84 nM, respectively.

Take `COc1ccc(-n2c(-c3ccc([N+](=O)[O-])cn3)nc3cc(C(F)(F)F)ccc32)nn1` [Example 53, 1-(6-methoxypyridazin-3-yl)-2-(5-nitropyridin-2-yl)-5-(trifluoromethyl)-1H-benzimidazole]: the IC50 stood at 42 nM in experiment [2] and 57 nM in experiment [3].

As to `COc1ccc(-n2c(-c3coc(C)n3)nc3cc(C(F)(F)F)ccc32)nn1` [Example 139, 1-(6-methoxypyridazin-3-yl)-2-(2-methyl-1,3-oxazol-4-yl)-5-(trifluoromethyl)-1H-benzimidazole], the IC50 in experiment [2] stood at 86 nM; in experiment [3] it was 60 nM.

With `COc1ccc(-n2c(-c3ccc(F)cn3)cc3cc(C(F)(F)F)cnc32)cn1` [Example 184, 2-(5-fluoropyridin-2-yl)-1-(6-methoxypyridin-3-yl)-5-(trifluoromethyl)-1H-pyrrolo[2,3-b]pyridine], the values for the IC50 in experiment [1] and in experiment [3] were above 10 µM and 17 nM, respectively.

For `CCc1ccc2c(c1)nc(-c1ccccn1)n2-c1ccc(OC)nc1` [Example 17, 5-ethyl-1-(6-methoxypyridin-3-yl)-2-pyridin-2-yl-1H-benzimidazole], the IC50 in experiment [2] was determined as 160 nM; in experiment [3], 110 nM.

In the case of `COc1ccc(-n2c(-c3coc(C)n3)nc3cc(C(F)(F)F)cnc32)cn1` [Example 122, 3-(6-methoxypyridin-3-yl)-2-(2-methyl-1,3-oxazol-4-yl)-6-(trifluoromethyl)-3H-imidazo[4,5-b]pyridine], the IC50 was 40 nM in experiment [2] and 34 nM in experiment [3].

As to `COc1ccc(-n2c(-c3cocn3)nc3cc(OC(F)(F)F)ccc32)nn1` [Example 155, 1-(6-methoxypyridazin-3-yl)-2-(1,3-oxazol-4-yl)-5-(trifluoromethoxy)-1H-benzimidazole], the IC50 in experiment [2] and in experiment [3] was 29 nM in each case.
